Source: US10294202B2, “Pyrrolidinones as herbicides” (FMC Corporation, priority 2013, dated 2019)

How the values were obtained:
Test in all cases: Test C pre-/postemergence herbicide test
[1] = tested on: bermudagrass; assay type: in vivo, Cynodon dactylon; settings: Preemergence; for Bermudagrass plant response rating: 31 g ai/ha
From the text: (§1) Seeds of plant species selected from blackgrass (Alopecurus myosuroides), ryegrass, Italian (Italian ryegrass, Lolium multiflorum), wheat (winter wheat, Triticum aestivum), galium (catchweed bedstraw, Galium aparine), corn (Zea mays), crabgrass, large (large crabgrass, Digitaria sanguinalis), foxtail, giant (giant foxtail, Setaria faberii), johnsongrass (Sorghum halepense), lambsquarters (Chenopodium album), morningglory (Ipomoea coccinea), nutsedge, yellow (yellow nutsedge, Cyperus esculentus), pigweed (Amaranthus retroflexus), ragweed (common ragweed, Ambrosia elatior), soybean (Glycine max), barnyardgrass (Echinochloa crus-galli), oilseed rape (Brassica napus), waterhemp (common waterhemp, Amaranthus rudis), kochia (Kochia scoparia), oat, wild (wild oat, Avena fatua), surinam grass (Brachiaria decumbens), foxtail, green (green foxtail, Setaria viridis), goosegrass (Eleusine indica), bromegrass, downy (downy bromegrass, Bromus tectorum), nightshade (eastern black nightshade, Solanum ptycanthum), cocklebur (common cocklebur, Xanthium strumarium), cupgrass, woolly (woolly cupgrass, Eriochloa villosa), bermudagrass (Cynodon dactylon), sunflower, (common oilseed sunflower, Helianthus annuus), Russian thistle (Salsola kali) and velvetleaf (Abutilon theophrasti) were planted into a blend of loam soil and sand and treated preemergence with test chemicals formulated in a non-phytotoxic solvent mixture which included a surfactant. At the same time, plants selected from these crop and weed species and also barley (winter barley, Hordeum vulgare), […]), chickweed (common chickweed, Stellaria media), deadnettle (henbit deadnettle, Lamium amplexicaule), and canarygrass (littleseed canarygrass, Phalaris minor) were planted in pots containing Redi-Earth® planting medium (Scotts Company, 14111 Scottslawn Road, Marysville, Ohio 43041) comprising spaghnum peat moss, vermiculite, wetting agent and starter nutrients and treated with postemergence applications of test chemicals formulated in the same manner. Plants ranged in height from 2 to 18 cm (1- to 4-leaf stage) for postemergence treatments. Treated plants and controls were maintained in a greenhouse for 13 to 15 days, after which time all species were compared to controls and visually evaluated. Plant response ratings, summarized in Table C, are based on a scale of 0 to 100 where 0 is no effect and 100 is complete control. A dash (-) response means no test result.

[2] = tested on: cupgrass, woolly; assay type: in vivo, Eriochloa villosa; settings: Preemergence; for Cupgrass, Woolly plant response rating: 31 g ai/ha
From the text: as §1

[3] = tested on: sunflower; assay type: in vivo, Helianthus annuus; settings: Preemergence
From the text: as §1

[4] = tested on: surinam grass; assay type: in vivo, Brachiaria decumbens; settings: Preemergence
From the text: as §1

[5] = tested on: foxtail, green; assay type: in vivo, Setaria viridis; settings: Preemergence; for Foxtail, Green plant response rating: 31 g ai/ha
From the text: as §1

[6] = tested on: cocklebur; assay type: in vivo, Xanthium strumarium; settings: Preemergence; for Cocklebur plant response rating: 31 g ai/ha
From the text: as §1

[7] = tested on: bromegrass, downy; assay type: in vivo, Bromus tectorum; settings: Preemergence; for Bromegrass, Downy plant response rating: 31 g ai/ha
From the text: as §1

[8] = tested on: Russian thistle; assay type: in vivo, Salsola kali; settings: Preemergence, 62 g ai/ha; scale 0 to 100
From the text: as §1

[9] = tested on: goosegrass; assay type: in vivo, Eleusine indica; settings: Preemergence; for Goosegrass plant response rating: 31 g ai/ha
From the text: as §1

[10] = tested on: nightshade; assay type: in vivo, Solanum ptycanthum; settings: Preemergence
From the text: as §1

[11] = scale 0 to 100 (0 no effect, 100 complete control)
[12] = 125 g ai/ha, scale 0 to 100 (0 no effect, 100 complete control)
[13] = 250 g ai/ha, scale 0 to 100 (0 no effect, 100 complete control)
[14] = scale 0 to 100, 0 is no effect and 100 is complete control
[15] = 31 g ai/ha, scale 0 to 100, 0 is no effect and 100 is complete control

Question: Which “Bermudagrass plant response rating” value [1, 11] does the source give for `Cc1ccccc1NC(=O)C1C(=O)NCC1c1cc(F)c(F)c(F)c1` (racemic) [Compound 35] here?
Answer: Its value is 0.

Question: What about the “Plant response rating, Bermudagrass” value ([1]; 62 g ai/ha, scale 0 to 100) of the same compound?
Answer: Its value is 0.

Question: And the “Plant response rating, Bermudagrass” value [1, 12]?
Answer: The value was 0.

Question: What about the “Plant response rating, Bermudagrass” value [1, 13] of the same compound?
Answer: Its value is 75.

Question: And the “Cupgrass, Woolly plant response rating” value [2, 11]?
Answer: Its value is 55.

Question: And the “Plant response rating, Cupgrass, Woolly” value ([2]; 62 g ai/ha, scale 0 to 100)?
Answer: Its value is 80.

Question: And the “Plant response rating, Cupgrass, Woolly” value [2, 12]?
Answer: Its value is 85.

Question: What about the “Plant response rating, Cupgrass, Woolly” value [2, 13] of the same compound?
Answer: The value was 90.

Question: And the “Plant response rating Sunflower” value ([3]; 62 g ai/ha, scale 0 to 100)?
Answer: Its value is 0.

Question: What about the “Plant response rating Sunflower” value [3, 12] of the same compound?
Answer: The value was 10.

Question: What about the “Plant response rating, Surinam Grass” value ([4]; 62 g ai/ha, scale 0 to 100) of the same compound?
Answer: The value was 90.

Question: And the “Plant response rating, Surinam Grass” value [4, 12]?
Answer: The value was 100.

Question: What about the “Foxtail, Green plant response rating” value [5, 11] of the same compound?
Answer: The value was 90.

Question: And the “Plant response rating, Foxtail, Green” value ([5]; 62 g ai/ha, scale 0 to 100)?
Answer: The value was 98.

Question: What about the “Plant response rating, Foxtail, Green” value [5, 12] of the same compound?
Answer: The value was 98.

Question: And the “Plant response rating, Foxtail, Green” value [5, 13]?
Answer: Its value is 98.

Question: And the “Cocklebur plant response rating” value [6, 11]?
Answer: Its value is 0.

Question: What about the “Plant response rating, Cocklebur” value ([6]; 62 g ai/ha, scale 0 to 100) of the same compound?
Answer: The value was 0.

Question: What about the “Plant response rating, Cocklebur” value [6, 12] of the same compound?
Answer: Its value is 0.

Question: And the “Plant response rating, Cocklebur” value [6, 13]?
Answer: The value was 0.

Question: And the “Bromegrass, Downy plant response rating” value [7, 11]?
Answer: The value was 0.

Question: And the “Plant response rating, Bromegrass, Downy” value ([7]; 62 g ai/ha, scale 0 to 100)?
Answer: The value was 0.

Question: And the “Plant response rating, Bromegrass, Downy” value [7, 12]?
Answer: The value was 5.

Question: What about the “Plant response rating, Bromegrass, Downy” value [7, 13] of the same compound?
Answer: The value was 40.

Question: What about the “Plant response rating, Russian Thistle” value [8] of the same compound?
Answer: Its value is 0.

Question: What about the “Goosegrass plant response rating” value [9, 11] of the same compound?
Answer: Its value is 0.

Question: What about the “Plant response rating, Goosegrass” value ([9]; 62 g ai/ha, scale 0 to 100) of the same compound?
Answer: The value was 0.

Question: What about the “Plant response rating, Goosegrass” value [9, 12] of the same compound?
Answer: Its value is 5.

Question: What about the “Plant response rating, Nightshade” value ([10]; 62 g ai/ha, scale 0 to 100) of the same compound?
Answer: Its value is 0.

Question: And the “Plant response rating, Nightshade” value [10, 12]?
Answer: The value was 0.

Question: What does the source list for `O=C1NCC(c2ccc(Cl)c(F)c2)C1C(=O)Nc1ccccc1F` (centres unmarked) [Compound 53]?
Answer: Bermudagrass plant response rating [1, 11]: 40; Plant response rating, Bermudagrass ([1]; 62 g ai/ha, scale 0 to 100): 40; Plant response rating, Bermudagrass [1, 12]: 50; Plant response rating, Bermudagrass [1, 13]: 50; Cupgrass, Woolly plant response rating [2, 11]: 35; Plant response rating, Cupgrass, Woolly ([2]; 62 g ai/ha, scale 0 to 100): 65; Plant response rating, Cupgrass, Woolly [2, 12]: 80; Plant response rating, Cupgrass, Woolly [2, 13]: 80; Plant response rating Sunflower ([3]; 62 g ai/ha, scale 0 to 100): 15; Plant response rating Sunflower [3, 12]: 20; Plant response rating, Surinam Grass ([4]; 62 g ai/ha, scale 0 to 100): 25; Plant response rating, Surinam Grass [4, 12]: 75; Foxtail, Green plant response rating [5, 11]: 30; Plant response rating, Foxtail, Green ([5]; 62 g ai/ha, scale 0 to 100): 90; Plant response rating, Foxtail, Green [5, 12]: 90; Plant response rating, Foxtail, Green [5, 13]: 90; Plant response rating, Cocklebur [6, 12]: 5; Plant response rating, Cocklebur [6, 13]: 5; Bromegrass, Downy plant response rating [7, 11]: 0; Plant response rating, Bromegrass, Downy ([7]; 62 g ai/ha, scale 0 to 100): 0; Plant response rating, Bromegrass, Downy [7, 12]: 0; Plant response rating, Bromegrass, Downy [7, 13]: 0; Goosegrass plant response rating [9, 11]: 0; Plant response rating, Goosegrass ([9]; 62 g ai/ha, scale 0 to 100): 10; Plant response rating, Goosegrass [9, 12]: 30; Plant response rating, Nightshade ([10]; 62 g ai/ha, scale 0 to 100): 0; Plant response rating, Nightshade [10, 12]: 40

Question: Which results are given for `O=C1NCC(c2cccc(OC(F)(F)F)c2)C1C(=O)Nc1cccc(F)c1F` (centres unmarked) [Compound 68]?
Answer: Bermudagrass plant response rating [1, 14]: 30; Plant response rating, Bermudagrass ([1]; 62 g ai/ha, scale 0 to 100): 50; Plant response rating, Bermudagrass [1, 12]: 85; Plant response rating, Bermudagrass [1, 13]: 85; Cupgrass, Woolly plant response rating [2, 14]: 75; Plant response rating, Cupgrass, Woolly ([2]; 62 g ai/ha, scale 0 to 100): 75; Plant response rating, Cupgrass, Woolly [2, 12]: 85; Plant response rating, Cupgrass, Woolly [2, 13]: 90; Sunflower plant response rating [3, 15]: 0; Plant response rating Sunflower ([3]; 62 g ai/ha, scale 0 to 100): 0; Plant response rating Sunflower [3, 12]: 10; Surinam Grass plant response rating [4, 15]: 40; Plant response rating, Surinam Grass ([4]; 62 g ai/ha, scale 0 to 100): 75; Plant response rating, Surinam Grass [4, 12]: 75; Foxtail, Green plant response rating [5, 14]: 90; Plant response rating, Foxtail, Green ([5]; 62 g ai/ha, scale 0 to 100): 90; Plant response rating, Foxtail, Green [5, 12]: 95; Plant response rating, Foxtail, Green [5, 13]: 95; Cocklebur plant response rating [6, 14]: 15; Bromegrass, Downy plant response rating [7, 14]: 0; Plant response rating, Bromegrass, Downy ([7]; 62 g ai/ha, scale 0 to 100): 0; Plant response rating, Bromegrass, Downy [7, 12]: 0; Plant response rating, Bromegrass, Downy [7, 13]: 0; Goosegrass plant response rating [9, 14]: 55; Plant response rating, Goosegrass ([9]; 62 g ai/ha, scale 0 to 100): 75; Plant response rating, Goosegrass [9, 12]: 80; Nightshade plant response rating [10, 15]: 10; Plant response rating, Nightshade ([10]; 62 g ai/ha, scale 0 to 100): 50; Plant response rating, Nightshade [10, 12]: 55
